Measured values as given in a melting point compilation (Tetko et al.; mined from patent text by program, amines drawn as free bases though some values may be those of a salt).

Structure (SMILES) | melting point
O=S(=O)(CCl)c1c(Cl)nc(Cl)nc1Cl | 152 to 153 °C
CCCCCCCCCCCCCCCCS(=O)(=O)Nc1cccc(C(=O)CBr)c1 | 92 to 95 °C
COc1cccc2c1CCN([C@@H]1CN3CCC1CC3)C2=O | > 290 °C
Cc1cn2c(=O)c3c(Cl)cccc3nc2s1 | 235 to 236 °C
CCOc1cc2ncc(C#N)c(Nc3ccc4c(c3)S(=O)(=O)C=C4)c2cc1OCC | 155 to 160 °C
NC1=NC2CCCc3cccc(c32)N1 (stereo unspecified) | 230 to 232 °C
CSc1c([N+](=O)[O-])c2cc(Cl)ccc2[nH]c1=O | 213 °C
N#Cc1cnc2cc(C=O)sc2c1Cl | 188 to 189 °C
CNC(=O)c1ccccc1Nc1nc(Nc2ccc3c(c2)CCC(NCC(F)F)CC3)ncc1Cl (stereo unspecified) | 182 to 183 °C
CC(C)CN1C(=O)[C@@H](CCCl)O[C@H](c2ccccc2Cl)c2cc(Cl)ccc21 (relative stereo) | 138 to 140 °C
CC(=O)Nc1ccc(-c2ccc(CC34CCCN3C(=O)N(c3cc(Cl)cc(Cl)c3)C4=O)cc2)cc1 (stereo unspecified) | 124 °C
CCN(c1nc(-c2c(F)cccc2OC)c2[nH]ncc2n1)c1ccc(C(F)(F)F)cc1Cl | 184 to 185 °C
Cn1c(=O)c2c(nc3n(Cc4ccccc4)c(=O)cc(O)n23)n(C)c1=O | 206 to 209 °C
COc1ccc(-c2cccc3ccccc23)cc1OC1CCCC1 | 123 to 125 °C
N#Cc1ccc(-c2ccc(-c3ccc(C#N)o3)o2)cc1 | 194 to 195 °C
Cc1ccc(S(=O)(=O)Nc2ccccc(=O)c2O)cc1 | 177 to 179 °C
CCOc1cc(OCC)cc(-c2cncn2-c2ccc(S(C)(=O)=O)cc2)c1 | 100 to 101 °C
COc1ccc(-c2[nH]nc3c2C(=O)c2c(NC(=O)N[C@@H]4CCCC[C@@H]4N)cccc2-3)cc1 (relative stereo) | > 300 °C
CCOc1ccc(-n2cnnc2C(F)(F)F)cc1 | 70 °C
O=C1C2=C(CCCC2)C(=O)N1c1ccc(Cl)c2c1CC(CBr)O2 (stereo unspecified) | 134 to 136 °C
CC(C)c1cccc(-c2ccc(F)cc2)c1/C=C/CO | 71 to 72 °C
CC1(C)NC(C[PH](=O)O)C(C)(C)S1 (stereo unspecified) | 193 to 194 °C
COc1ccc(C2(C34CC5CC(CC(C5)C3)C4)N=C(N)N(C)C2=O)cc1 (stereo unspecified) | 150 to 155 °C
COc1cccc(-c2nc(Nc3ccc(Cl)cc3)c3ccccc3n2)n1 | 157 to 160 °C
Cc1cc2c(cc1-c1ccncc1)C(=O)C(=O)N2 | 292 to 294 °C
Cc1cc(-c2cc(C(F)F)nn2-c2ccc(S(C)(=O)=O)c(F)c2)ccc1-c1nccs1 | 123 °C

Structure (SMILES) | melting point
Cc1nc(C)c(-c2ccnc(Nc3ccc(NC(=O)CCl)cc3)n2)s1 | 217 to 219 °C
CCc1ccc2nc(Cl)nc(Cl)c2c1 | 80 to 83 °C
COc1ccc(N2CCN(c3cc4c(c(C)c3C)OC(C)(C)C4)CC2)cc1 | 180 to 182 °C
c1cnc(NC2CCN(CC3CCc4ccccc4O3)CC2)nc1 (stereo unspecified) | 142 °C
Nc1ncnn1C(=S)NCc1ccccc1 | 157 to 158 °C
CN1C(=O)N(C)C(O)(c2ccccc2)c2cc(Cl)ccc21 (stereo unspecified) | 174 to 176 °C
Cc1nccn1-c1ccc(N2C[C@H](CNc3ccon3)OC2=O)cc1F | 106 to 107 °C
CC(C)(CO)NC(=O)c1nn(-c2ccc(F)cc2)c2c1C1CCC2CC1 | 165 to 168 °C
CN1CCC(=O)C(C(c2ccccc2)c2ccccc2)C1 (stereo unspecified) | 127 to 128 °C
COc1ccc(OC)c(-c2nc3ncccc3[nH]2)c1 | 235 °C
O=C1CCC(c2ccc(CO)cc2)CC1 | 58 to 60 °C
NC(=O)C1=CCCc2cc(Sc3cccc(F)c3)ccc21 | 168 to 170 °C
N#Cc1nccn1Cc1cccs1 | 64 to 65 °C
CC1(C)OC(c2ccc(S(C)(=O)=O)cc2)=C(c2cc(F)cc(F)c2)C1=O | 141 to 142 °C
CCC12CCC3c4ccc(OC)cc4C(C)CC3C1CCC2O (stereo unspecified) | 150 to 160 °C
CCCCn1c(=O)c(NC(=O)Nc2c(C(C)C)cc(CN)cc2C(C)C)c(-c2cccc(OC)c2)c2cccnc21 | 186 to 187 °C
Cn1c2ccc(F)cc2c(=O)n2nc(-c3nnn[nH]3)cc12 | 350 to 360 °C
Cn1cc(C#N)c(Br)c1Br | 138 to 139 °C
CN1Cc2ccc3c(c2C1)NC(=O)C3=NO | 242 to 244 °C
NS(=O)(=O)c1cc2cc(O)ccc2s1 | 192 to 194 °C
Cc1c(-c2ccc3oc(SCc4ccccn4)nc3c2)nc2ccccn12 | 116 to 118 °C
O=S1(=O)CCN2C=C(F)C=C(c3ccc(Oc4ccccc4)cc3)C2=N1 | 91.9 to 92 °C
Nc1nc(-c2ccncc2)nc2c1c(Br)nn2C1CCCC1 | 189 to 191 °C
c1ccc(-n2ncnc2-c2ccncc2)cc1 | 92 to 94 °C
O=C1C(=O)N(Cc2ccc(F)nc2)c2ccc(S(=O)(=O)N3CC[C@H]3COc3ccccc3)cc21 | 177 to 178 °C
Cc1cc(O)c(O)cc1Br | 92 to 98 °C

Results, then the compound that gave them:

melting point | Structure (SMILES)
103 °C | CCOCCNc1nc(Cl)nc(N[C@@H](C)c2ccccc2)n1
192 to 195 °C | Cc1ccc2c(c1)N(CC(=O)c1ccccc1C)C(=O)C(NC(=O)Nc1ccc(C)c(C(=O)O)c1)CN2C(=O)c1cccs1 (stereo unspecified)
142 to 143 °C | Cc1cc(N(C)CC(=O)N2CCN(Cc3ccc4c(c3)OCO4)CC2)ccc1Oc1ccc([N+](=O)[O-])cn1
160 °C | CC(C)(C)OC(=O)NC(C(=O)O)C1=CSCCO1 (stereo unspecified)
182 to 184 °C | CCCNC(=O)[C@H](C)C[C@H](O)[C@H](CC1CCCCC1)NC(=O)[C@H](Cc1cscn1)NC(=O)OC(C)(C)C
257 to 260 °C | CC(C)(C)N1CCN(c2cc3c(cc2F)c(=O)c(C(=O)O)cn3C2CC2)CC1
133 to 137 °C | CC(C)(C)OC(=O)NC1C(=O)N(C(O)C(=O)OC(c2ccccc2)c2ccccc2)C1CBr (stereo unspecified)
96 to 99 °C | CCCc1c(OCCCOc2c(C(C)=O)ccc(OCCCC(=O)O)c2CCC)ccc(C(C)=O)c1O
126 to 127 °C | CC(C)(C)OC(=O)c1ccc(C=Cc2ccc(C(=O)OC(C)(C)C)cc2)cc1
65 to 66.5 °C | O=C(CC(=O)C(F)F)c1ccc(Cl)cc1
210 to 215 °C | CC(=O)NCc1cn(-c2ccc(-n3cccc3)c(F)c2)nn1
52 to 54 °C | CN(C)C(=O)c1noc(-c2cnccc2C(F)(F)F)n1
232 to 243 °C | COc1cc2c(cc1Nc1ncc(Cl)c(Nc3cc(C(N)=O)ccc3OC)n1)CCN(CCS(C)(=O)=O)CC2
166 to 168 °C | Cc1cc(=O)oc2cccc(OC(=S)N(C)C)c12
83 to 85 °C | CCOC(=O)CC[C@H](NC(=O)/C=C/C(=O)c1ccccc1)C(=O)OCC
110 to 112 °C | O=C(O)CCCNC(=O)c1ccccc1NC(=O)c1ccccc1Cl
103 °C | CC(C)c1ccc(-c2nc(COc3ccc(OC(C)(C)C(=O)O)cc3)no2)cc1
230 to 235 °C | CC1CC2=C(CCC(Cc3ccc(O)cc3)C2)NC1=O (stereo unspecified)
240 °C | O=C(O)C(=O)Nc1cccc(-c2nnn[nH]2)c1
107 to 109 °C | CC(C)(Nc1c(Cl)cccc1[N+](=O)[O-])C(=O)O
225 to 229 °C | COC(=O)C1=C(C)NC(C)=C(c2nnco2)C1c1cccc(Cl)c1Cl (stereo unspecified)
92 to 93 °C | CC(C)(C)c1cc(SC2CC(=O)OC2=O)cc(C(C)(C)C)c1O (stereo unspecified)
206 to 207 °C | CSc1sc(C(N)=O)c2c1-c1[nH]c(-c3ccccc3)nc1CC2
95 to 98 °C | CC(C)(CN(Cc1ccccc1)C(=O)CCC(=O)O)SN=O
100 to 101 °C | COC(=O)c1ccc(OC)c(N(C(C)=O)c2cc(Cl)cc(Cl)c2)c1

melting point | Structure (SMILES)
55 °C | CC(C)OC(=O)COCc1cc(-c2nn(C)c(C(F)(F)F)c2Cl)c(F)cc1Cl
44 to 49 °C | COC(=O)C1=C(C)NC(C)=C(C(=O)OCCN2CCN(c3ccc(F)cc3)CC2)C1c1cccc(Cl)c1 (stereo unspecified)
65 to 66 °C | CCCCOC1C=CC(=O)N1S(=O)(=O)c1ccc(OC)cc1 (stereo unspecified)
95 °C | CCCOc1cccc(C2(c3cc(C(=O)CC)n(CC)c3)N=C(N)N(C)C2=O)c1 (stereo unspecified)
141 to 142 °C | COc1cccc(C(=O)N2CCc3cc(O)c(OC)cc3C2)c1
153 to 154 °C | CC(C)(C)OC(=O)N1CCC(CNc2c([N+](=O)[O-])cnc3cc(-c4ccccc4)ccc23)CC1
140 °C | N#Cc1ccccc1-c1ccc(CC(NC(=O)Nc2ccccc2S(=O)(=O)N2CCCCC2)C(=O)O)cc1 (stereo unspecified)
178 to 181 °C | CC(C)Oc1ccccc1N1CCN(Cc2cccc(CC3NC(=O)NC3=O)c2)CC1 (stereo unspecified)
207 to 208 °C | CC1(C)CCC(C)(C)c2cc(CC#Cc3ccc(C(N)=O)cc3)ccc21
168 to 170 °C | COc1ccc(N(C(=O)C(C)c2ccccc2)c2cccc(Nc3c(N)c(=O)c3=O)c2)cc1 (stereo unspecified)
129 to 130 °C | CCN(C(=O)N1CCN(c2cc(OC)cc(OC)c2)CC1)c1nc2ccccc2nc1OC
78 to 82 °C | CC(Cc1c[nH]c2ccccc12)(NC(=O)OC1C2CC3CC(C2)CC1C3)C(=O)NCCc1cccc(NC(=O)CCC(=O)O)c1 (stereo unspecified)
138 °C | COc1cnc(CS(C)(=O)=O)nc1OC(=O)NN1CCOCC1
143 to 145 °C | CNC(=O)c1ccc(F)c(F)c1
134 to 135 °C | O=C(O)COc1ccc(SCc2ccc(OCc3cc(Cl)cc(Cl)c3)cc2)c2c1CCC2
148 to 150 °C | CCOC(=O)Cc1ccc(NC(=O)C(CO)NS(=O)(=O)c2ccc(F)cc2)cc1 (racemic)
154 °C | CC(C)N(C(N)=O)C(Oc1ccccc1)C(C)(O)Cl (stereo unspecified)
140 to 142 °C | CCCNC(=O)NS(=O)(=O)N1CCC(CCNC(=O)c2cc(Cl)ccc2OC)CC1
180 °C | O=C1CN(C(=O)N2CCOCC2)c2ccccc2N1
134 to 137 °C | O=C(O)c1c[nH]c(Sc2cccc(Cl)c2)c1
160 to 161 °C | CCOP(=O)(Cc1ccc(NC(=O)C(Cc2ccccc2)C(=O)O)cc1)OCC (stereo unspecified)
177 °C | Cc1ccc(C(C)N(O)C(=O)c2ccc(S(C)(=O)=O)cc2)o1 (stereo unspecified)
86.5 to 88.5 °C | CC1(C)COC(C=Cc2ccc([N+](=O)[O-])cc2)OC1
117 to 118 °C | CC(C)(C)OC(=O)N[C@H](CC(=O)OCc1ccccc1)C(=O)N[C@H](CO)c1ccccc1
